# Where no end group is shown, it is not given here.
# How the values were obtained:
# [1] = tested on: Thyroid cancer tumor cells; experiment: MTT proliferation inhibition, thyroid cancer cells; type: cell-based, human; design: concentration or dose not given beside the values; conditions: 48 h
# In short: (§1)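 Tumour cells plated at 2×10^4 cells/mL, attached overnight, then exposed to dilutions of mPEG-HM-1 for 48 h at 37 °C, 5% CO2. MTT added 4 h, formazan dissolved in DMSO, absorbance 570/630 nm; growth inhibition = 1 − treated/untreated, three independent repeats, mean±SD.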
# [2] = tested on: choroidal neovascularization in BN rats; experiment: Laser-induced choroidal neovascularization in BN rats (FFA); type: in vivo, rat; conditions: 50 μg intravitreally once daily for 1 week (Table 53)
# In short: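 Male BN rats (6–8 weeks) received 8 laser photocoagulation spots per eye around the optic disc (647.1 nm, 350 mW, 50 μm, 0.05 s). Confirmed models, 5 per group, were given saline or PEG-modified HM-1 intravitreally once daily for 1 week. FFA was done 3, 7, 14 and 28 days after dosing.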
# [3] = tested on: Esophageal cancer tumor cells; experiment: MTT proliferation inhibition, esophageal cancer cells; type: cell-based, human; design: concentration or dose not given beside the values; conditions: 48 h
# In short: as §1
# [4] = tested on: Uterine cancer tumor cells; experiment: MTT proliferation inhibition, uterine cancer cells; type: cell-based, human; design: concentration or dose not given beside the values; conditions: 48 h
# In short: as §1
# [5] = tested on: Pancreatic cancer tumor cells; experiment: MTT proliferation inhibition, pancreatic cancer cells; type: cell-based, human; design: concentration or dose not given beside the values; conditions: 48 h
# In short: as §1
# [6] = tested on: Ovarian cancer tumor cells; experiment: MTT proliferation inhibition, ovarian cancer cells; type: cell-based, human; design: concentration or dose not given beside the values; conditions: 48 h
# In short: as §1
# [7] = tested on: Hemangioma tumor cells; experiment: MTT proliferation inhibition, hemangioma cells; type: cell-based, human; design: concentration or dose not given beside the values; conditions: 48 h
# In short: as §1
# [8] = tested on: Melanoma tumor cells; experiment: MTT proliferation inhibition, melanoma cells; type: cell-based, human; design: concentration or dose not given beside the values; conditions: 48 h
# In short: as §1
# [9] = tested on: Brain tumor cells; experiment: MTT proliferation inhibition, brain tumor cells; type: cell-based, human; design: concentration or dose not given beside the values; conditions: 48 h
# In short: as §1
# [10] = tested on: sarcoma tumor cells; experiment: MTT proliferation inhibition, sarcoma cells; type: cell-based, human; design: concentration or dose not given beside the values; conditions: 48 h
# In short: as §1
# [11] = tested on: Head and neck cancer tumor cells; experiment: MTT proliferation inhibition, head and neck cancer cells; type: cell-based, human; design: concentration or dose not given beside the values; conditions: 48 h
# In short: as §1
# [12] = tested on: adjuvant arthritis (AA) SD rats; experiment: Adjuvant arthritis (AA) rat model; type: in vivo
# [13] = tested on: collagen induced arthritis (CIA) in DBA/1 mice; experiment: Collagen-induced mouse arthritis (CIA) model; type: in vivo
# [14] = tested on: various tumor cells; experiment: MTT proliferation inhibition, overall statements on various tumor cells; type: cell-based, human; conditions: compared with the negative control
# Description: The activity of mPEG-HM-1 to inhibit the growth of various tumor cells was examined by MTT assay. The tumor cells were cultured to a concentration of 90% or more in a 37° C., 5% CO2 incubator and collected by trypsinization. The cells were resuspended in the culture medium and counted under a microscope to adjust the cell concentration to 2×10^4 cells/mL, the cell suspension was inoculated into a 96-well plate at 100 μL/well and incubated overnight at 37° C. in a 5% CO2 incubator. mPEG-HM-1 was diluted with the culture solution to each predetermined concentration. Docetaxel is diluted to the final concentration with the culture medium. After the cells were fully attached, each dilution was added to a 96-well plate (100 μL/well). The mPEG-HM-1 dilution was added as a drug-administered group, and docetaxel was added as a positive control group, and a culture solution without any drug was used as a negative control group. Incubate for 48 h at 37° C. in a 5% CO2 incubator. 5 mg/mL of MTT was added to a 96-well plate at 20 μL per well, and incubation was continued for 4 hours. The medium was aspirated, dissolved in 150 μL of DMSO per well, and gently mixed by shaking for 10 min. The absorbance was measured at a measurement wavelength of 570 nm and a reference wavelength of 630 nm using a microplate reader, and the rate of growth inhibition (proliferation inhibition, PI) was calculated. The formula is as follows: PI (%)=1−administration group/negative group
# The test was repeated 3 times independently, and the results obtained by the test were expressed as mean±SD, and the test results are shown in Table 15 to Table 18.
# [15] = 20 mg/kg subcutaneous once every three days, AA SD rats
# [16] = 20 mg/kg subcutaneous from day 30 of modeling, CIA DBA/1 mice
substance,measurement,setting,value
mPEG-bALD10k-Arg-Gly-Ala-Asp-Arg-Ala-Gly-Gly-Gly-Gly-Arg-Gly-Asp ({mPEG‑bALD 10 kDa}-RGADRAGGGGRGD) [mPEG-bALD10k-HM-1],rate of growth inhibition,[1],55.74 ± 13.13%
same,CNV Incidence rate,[2]; Day 3 after administration,48.46%
same,leakage Spots #,"[2]; Day 3 after administration, total spots 290-296 by table",142
same,CNV Incidence rate,[2]; Day 7,46.49%
same,leakage Spots #,"[2]; Day 7, total spots 182-188 by table",86
same,CNV Incidence rate,[2]; Day 14,42.03%
same,leakage Spots #,"[2]; Day 14, total spots 132-138 by table",58
same,CNV Incidence rate,[2]; Day 28,39.13%
same,leakage Spots #,"[2]; Day 28, total spots 67-71 by table",27
same,rate of growth inhibition,[3],64.92 ± 12.17%
same,rate of growth inhibition,[4],79.79 ± 20.45%
same,rate of growth inhibition,[5],75.23 ± 16.41%
same,rate of growth inhibition,[6],80.35 ± 20.53%
same,rate of growth inhibition,[7],55.28 ± 12.30%
same,rate of growth inhibition,[8],82.33 ± 20.08%
same,rate of growth inhibition,[9],59.37 ± 14.52%
same,rate of growth inhibition,[10],52.01 ± 12.32%
same,rate of growth inhibition,[11],49.01 ± 12.14%
same,Joint swelling,[12]; [15],0.69 ± 0.13 mm
same,Left and right paw swelling,[12]; [15],3.73 ± 0.52 mm
same,Clinical score,"[12]; 20 mg/kg subcutaneous once every three days, AA SD rats, maximum score 16",5.40 ± 1.09
same,in vivo immune protection effect on adjuvant arthritis model (in words),"[12]; AA rats, subcutaneous, once every three days, vs model group",has the most significant effect
same,Joint swelling,[13]; [16],0.74 ± 0.12 mm
same,Left and right paw swelling,[13]; [16],0.71 ± 0.12 mm
same,Clinical score,"[13]; 20 mg/kg subcutaneous from day 30 of modeling, CIA DBA/1 mice, maximum score 16",8.69 ± 1.38
same,limbs score (in words),"[13]; CIA mice, subcutaneous, once every three days, vs model control group",significantly lower than that of the model control group
same,inhibition of proliferation of various tumor cells (in words),[14],had the best effect
